Source: ChEMBL document CHEMBL1138402, “CCR5 receptor antagonists: discovery and SAR study of guanylhydrazone derivatives” (Bioorg Med Chem Lett, 2007)

Target: C-C chemokine receptor type 5 (Homo sapiens, UniProt P51681)
Experiment: Displacement of [125I]MIP1-alpha from human CCR5/CD4 expressed in HEK293 cells
Format: cell-based

Sequence of C-C chemokine receptor type 5 (P51681 whole entry): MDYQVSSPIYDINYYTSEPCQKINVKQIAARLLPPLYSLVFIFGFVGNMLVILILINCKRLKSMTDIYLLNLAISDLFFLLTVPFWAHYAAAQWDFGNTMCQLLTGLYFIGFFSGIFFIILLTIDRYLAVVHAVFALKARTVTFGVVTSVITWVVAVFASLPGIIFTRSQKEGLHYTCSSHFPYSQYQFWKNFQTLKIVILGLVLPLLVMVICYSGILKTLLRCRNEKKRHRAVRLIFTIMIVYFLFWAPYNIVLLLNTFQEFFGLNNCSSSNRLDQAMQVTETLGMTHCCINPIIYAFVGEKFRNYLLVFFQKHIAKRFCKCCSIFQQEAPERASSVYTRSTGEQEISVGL

Row | SMILES | IC50
1 | CN(C)Cc1cc(Br)ccc1OCc1ccc(Cl)cc1 | 600 nM
2 | CCN(CC)Cc1cc(Br)ccc1OCc1ccc(Cl)cc1 | 1400 nM
3 | COc1ccc(COc2ccc(Br)cc2/C=N/NC(=N)N)cc1 | 700 nM
4 | N=C(N)N/N=C/c1cc(Br)ccc1OCc1ccc(OCc2ccccc2)cc1 | 2900 nM
5 | COc1ccc([N+](=O)[O-])cc1COc1ccc(Br)cc1/C=N/NC(=N)N | 8700 nM
6 | N=C(N)N/N=C/c1cccc(Cl)c1OCc1ccc(Cl)cc1 | > 30000 nM
7 | COc1cc(Br)cc(/C=N/NC(=N)N)c1OCc1ccc(Cl)cc1 | > 30000 nM
8 | COC(=O)c1cccc(COc2ccc(Br)cc2/C=N/NC(=N)N)c1 | 1600 nM
9 | N=C(N)N/N=C/c1cc(Br)ccc1OCc1cccc(C(=O)O)c1 | 39000 nM
10 | Cc1ccc(COc2ccc(Br)cc2/C=N/NC(=N)N)cc1 | 500 nM
11 | Cc1cccc(COc2ccc(Br)cc2/C=N/NC(=N)N)c1 | 1700 nM
12 | N=C(N)N/N=C/c1cc(Br)ccc1OCc1cccc2ccccc12 | 1100 nM
13 | C/C(=N/NC(=N)N)c1cc(Cl)ccc1OCc1ccc(Cl)cc1 | 8500 nM
14 | CN(/N=C/c1cc(Br)ccc1OCc1ccc(Cl)cc1)C1=NCCN1 | 14000 nM
15 | N=C(N)N/N=C/c1cc(Br)ccc1OCc1ccc(Br)cc1 | 600 nM
16 | N#Cc1ccc(COc2ccc(Br)cc2/C=N/NC(=N)N)cc1 | 480 nM
17 | N#Cc1cccc(COc2ccc(Br)cc2/C=N/NC(=N)N)c1 | 2000 nM
18 | N=C(N)N/N=C/c1cc(Br)ccc1OCc1cccc([N+](=O)[O-])c1 | 1700 nM
19 | N=C(N)N/N=C/c1cc(Cl)ccc1OCc1ccc(Cl)cc1 | 600 nM
20 | N=C(N)N/N=C/c1cc(F)ccc1OCc1ccc(Cl)cc1 | 3400 nM
21 | N=C(N)N/N=C/c1cc(Cl)cc(Cl)c1OCc1ccc(Cl)cc1 | 3100 nM
22 | N=C(N)N/N=C/c1cc(Br)ccc1OCc1ccccc1[N+](=O)[O-] | 5700 nM
23 | CC(C)(C)c1ccc(OCc2ccc(Cl)cc2)c(/C=N/NC(=N)N)c1 | > 30000 nM
24 | N#Cc1ccc(OCc2ccc(Cl)cc2)c(/C=N/NC(=N)N)c1 | 600 nM

Row | SMILES | IC50
25 | N=C(N)N/N=C/c1ccc(Cl)cc1OCc1ccc(Cl)cc1 | > 30000 nM
26 | C/C(=N\NC(=N)N)c1cc(Br)ccc1OCc1ccc(Cl)cc1 | 200 nM
27 | COC(=O)c1ccc(COc2ccc(Br)cc2/C=N/NC(=N)N)cc1 | 1300 nM
28 | CCN(CC)c1ccc(OCc2ccc(Cl)cc2)c(/C=N/NC(=N)N)c1 | > 30000 nM
29 | COc1cc(Br)cc(/C(C)=N/NC(=N)N)c1OCc1ccc(C#N)cc1 | 93 nM
30 | CC/C(=N\NC(=N)N)c1cc(Br)cc(OC)c1OCc1ccc(Cl)cc1 | 400 nM
31 | CC(C)C/C(=N\NC(=N)N)c1cc(Cl)ccc1OCc1ccc(F)cc1 | > 30000 nM
32 | COC(=O)c1ccc(OCc2ccc(Cl)cc2)c(/C=N/NC(=N)N)c1 | > 30000 nM
33 | N=C(N)N/N=C/c1cc(N)ccc1OCc1ccc(Cl)cc1 | > 30000 nM
34 | Clc1ccc(COc2ccc(Br)cc2CN2CCOCC2)cc1 | 1000 nM
35 | N=C(N)N/N=C/c1cc(Br)ccc1OCc1ccc(-c2ccccc2)cc1 | 1700 nM
36 | N=C(N)N/N=C/c1cc(Br)ccc1OCc1ccc(F)cc1F | 3700 nM
37 | C/C(=N\NC(=N)N)c1cc(Cl)ccc1OCc1ccc(Cl)cc1 | 140 nM
38 | CCCC/C(=N\NC(=N)N)c1cc(Cl)ccc1OCc1ccc(F)cc1 | 4200 nM
39 | Clc1ccc(COc2ccc(Br)cc2/C=N/NC2=NCCN2)cc1 | 750 nM
40 | N=C(N)N/N=C/c1cc(Br)ccc1OCc1ccc([N+](=O)[O-])cc1 | 900 nM
41 | N=C(N)N/N=C/c1cc([N+](=O)[O-])ccc1OCc1ccc(Cl)cc1 | 1200 nM
42 | N=C(N)N/N=C/c1cccc(F)c1OCc1ccc(Cl)cc1 | > 30000 nM
43 | N=C(N)N/N=C/c1cc(Br)ccc1OCc1ccccc1 | 1900 nM
44 | N=C(N)N/N=C/c1cc(Br)ccc1OCc1ccc(F)cc1 | 800 nM
45 | N=C(N)N/N=C/c1cc(Br)ccc1OCc1ccc(Cl)cc1 | 840 nM
46 | Clc1ccc(COc2ccc(Br)cc2/C=N/NC2=NCCCN2)cc1 | 2000 nM
47 | N=C(N)N/N=C/c1ccccc1OCc1ccc(Cl)cc1 | > 30000 nM
